Laboratory results: patent US20260373248A1, “DEGRADABLE PEPTOIDS” (Medici Therapeutics, Inc., priority 2023, published 2026)
Starred links: 1 amine or outer side, 2 acyl side, 3 side chain; linkers in the order of their positions; H or OH if unused. Non-standard residues stand in square brackets, D forms with d. Residues, ends and D or L forms follow the SMILES beside them. *: point of attachment. Gly(N-(3-decanoyloxypropyl)) = CCCCCCCCCC(=O)OCCCNCC(=O)O; N(3-lauroyloxypropyl)Gly = CCCCCCCCCCCC(=O)OCCCNCC(=O)O; N(2-decanoyloxyethyl)Gly = CCCCCCCCCC(=O)OCCNCC(=O)O; Gly(N-(CH2)3O-octanoyl) = CCCCCCCC(=O)OCCCNCC(=O)O; N(3-imidazol-1-ylpropyl)Gly = O=C(O)CNCCCn1ccnc1; N(2-ethylhexyl)Gly = CCCCC(CC)CNCC(=O)O; X2 = CCCCCCC(CCCC)CN(CC(=O)[*:2])[*:1]; N(CH(CH2OH)2)Gly = O=C(O)CNC(CO)CO; NHexGly = CCCCCCNCC(=O)O; For = O=C*

Columns and labels:
luciferase = assay: Luciferase expression after local (intramuscular or subcutaneous) administration of mRNA; format: in vivo; conditions: mRNA 0.01 mpk, 6 hours; for IM Flux: intramuscular; for SC Flux: subcutaneous
Summary of the method: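 Female Balb/c mice (6-8 weeks) received fLuc mRNA in aminolipidated peptoid Nutshells at 0.01 mpk subcutaneously or intramuscularly, or 0.1 mpk intratumorally. At 6 hours, anesthetized mice were given D-luciferin IP and imaged 10 minutes later; harvested organs were also imaged and total photon flux quantified in regions of interest.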

[1] = Peptoid quantity remaining in liver by HPLC-TOF mass spectrometry; format: in vivo; conditions: liver homogenate
Summary of the method: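 Whole liver weighed; 20 mg tissue bead-homogenized in IPA/MeOH (8/2) with internal standard, centrifuged, supernatant run on BEH C8 HPLC-TOF MS. Peptoid concentration derived from linear calibration curve (0.2-50 μg/g) prepared in spiked untreated liver.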

mRNA = mRNA encapsulation (modified Quant-iT RiboGreen assay); format: physicochemical; conditions: for mean percent encapsulation of RNA: RiboGreen, without vs with Triton X-100; for % Encapsulation: mRNA
Summary of the method: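 Peptoid nanoparticles were incubated with Triton X-100 for 10 min to release entrapped mRNA, then mixed with RiboGreen reagent and read by fluorescence (ex 485 nm/em 530 nm). Percent encapsulation was derived from the ratio of fluorescence without versus with Triton X-100.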

hEPO = assay: Quantification of hEPO in serum after IV injection of mRNA (Human EPO ELISA); format: in vivo; conditions: Balb/c mice, 2.5 μg mRNA IV, serum after 6 hours
Summary of the method: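 Balb/c mice received 2.5 μg mRNA encoding human EPO by IV injection; serum was collected after 6 hours. hEPO was measured by sandwich ELISA (biotin-conjugate, streptavidin-HRP, TMB, A450) against kit standards (mIU/mL) and an external standard (ng/mL), with values interpolated and corrected for dilution.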

firefly luciferase = assay: In vivo firefly luciferase expression after intravenous injection of fLuc mRNA delivery vehicles (IVIS imaging); design: species or system female Balb/c mice; conditions: for Total Flux (luciferase expression): fLuc mRNA, intravenous, Balb/c mice; for Total Flux: mice, 2.5 ug fLuc mRNA intravenously, 6 hours post-injection
Summary of the method: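 Female Balb/c mice (6-8 weeks) given 2.5 ug fLuc mRNA in Nutshells IV. At 6 hours, IP D-luciferin (30 mg/mL, 10 μL/g) under isoflurane; IVIS imaging 10 minutes later, then harvested organs imaged ex vivo. Read-out: total photon flux in regions of interest.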

[2] = Delivery vehicle size and polydispersity by dynamic light scattering; format: physicochemical
Summary of the method: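 LNPs made by microfluidic mixing of ethanolic peptoid/DSPC/cholesterol/DMG-PEG2000 (20:1.79:7.16:1.84 by weight) with mRNA in 10 mM citrate pH 5.0 at 1:3 by volume, then dialyzed overnight at 4 °C against tris-sucrose pH 7.4. Size and PDI read by dynamic light scattering in PBS.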

[3] = DLS in PBS, peptoid:DSPC:Cholesterol:DMG-PEG2000 weight ratio 20:1.79:7.16:1.84, mRNA

| SMILES | IM Flux (luciferase) [p/s] | SC Flux (luciferase) [p/s] | % of injected dose remaining in liver [1] | mean percent encapsulation of RNA (mRNA) [%] | % Encapsulation (mRNA; formulation recipe D22) [%] | % Encapsulation (mRNA; formulation recipe F2) [%] | hEPO (hEPO) [ng/mL] | Total Flux (luciferase expression) (firefly luciferase; formulation recipe D22) [p/s] | Total Flux (luciferase expression) (firefly luciferase; formulation recipe F2) [p/s] | Total Flux (firefly luciferase) [p/s] | PDI [2, 3] | Particle Size [2, 3] [nm] | Particle Size ([2]; formulation recipe D22) [nm] | Particle Size ([2]; formulation recipe F2) [nm] | other results |
| --- | --- | --- | --- | --- | --- | --- | --- | --- | --- | --- | --- | --- | --- | --- | --- |
| CCCCCCCCCCCC(=O)OCCCN(CC(=O)N(CC(=O)N(CCCn1ccnc1)CC(=O)N(CC(=O)N(CCCOC(=O)CCCCCCCCCCC)CC(=O)N(CC(N)=O)CC(CC)CCCC)CC(CC)CCCC)CC(CC)CCCC)C(=O)CN(C=O)CC(CC)CCCC (stereo not drawn) [Compound 82] (For-[N(2-ethylhexyl)Gly][N(3-lauroyloxypropyl)Gly][N(2-ethylhexyl)Gly][N(3-imidazol-1-ylpropyl)Gly][N(2-ethylhexyl)Gly][N(3-lauroyloxypropyl)Gly][N(2-ethylhexyl)Gly]-NH2) | 1.24E+08 | 1.41E+08 | 15.77% | 70.7 | 70.7 | 75.3 | 600 | 2.62E+09 | 4.10E+08 | 2.62E+09 | 0.163 | 81.5 | 81.5 | 65.9 | % Encapsulation (mRNA; formulation recipe X29): 62.0%; % Encapsulation (mRNA; formulation recipe X145): 70.9%; Total Flux (luciferase expression) (firefly luciferase; formulation recipe X29): 2.83E+09 p/s; Total Flux (luciferase expression) (firefly luciferase; formulation recipe X145): 5.70E+09 p/s; Particle Size ([2]; formulation recipe X29): 72.1 nm; Particle Size ([2]; formulation recipe X145): 80.7 nm |
| CCCCCCCC(=O)OCCCN(CC(=O)N(CC(=O)N(CC(=O)N(CCCOC(=O)CCCCCCC)CC(=O)N(CC(N)=O)CC(CCCC)CCCCCC)CC(CC)CCCC)CC(CCCC)CCCCCC)C(=O)CN(CC(CC)CCCC)C(=O)CNC(CO)CO (stereo not drawn) [Compound 104] (H-[N(CH(CH2OH)2)Gly][N(2-ethylhexyl)Gly][Gly(N-(CH2)3O-octanoyl)][X2][N(2-ethylhexyl)Gly][Gly(N-(CH2)3O-octanoyl)][X2]-NH2) | 1.34E+08 | 1.93E+08 | 7.45% | 93.6 | – | – | 693 | – | – | 4.50E+09 | 0.092 | 78.8 | – | – | – |
| CCCCCCCCCCCC(=O)OCCCN(CC(=O)N(CC(=O)N(CCCCCC)CC(=O)N(CCCOC(=O)CCCCCCCCCCC)CC(=O)N(CC(=O)N(CCCCCC)CC(N)=O)CC(CC)CCCC)CC(CC)CCCC)C(=O)CNCCCn1ccnc1 (stereo not drawn) [Compound 72] (H-[N(3-imidazol-1-ylpropyl)Gly][N(3-lauroyloxypropyl)Gly][N(2-ethylhexyl)Gly][NHexGly][N(3-lauroyloxypropyl)Gly][N(2-ethylhexyl)Gly][NHexGly]-NH2) | 9.25E+06 | 3.73E+07 | 11.32% | 89.2 | – | – | 36 | – | – | 1.71E+08 | 0.139 | 106.8 | – | – | – |
| CCCCCCCCCC(=O)OCCN(CC(=O)N(CCOC(=O)CCCCCCCCC)CC(=O)N(CC(=O)N(CCOC(=O)CCCCCCCCC)CC(=O)N(CCOC(=O)CCCCCCCCC)CC(=O)N(CC(N)=O)CC(CC)CCCC)CC(CC)CCCC)C(=O)CNC(CO)CO (stereo not drawn) [Compound 16] (H-[N(CH(CH2OH)2)Gly][N(2-decanoyloxyethyl)Gly][N(2-decanoyloxyethyl)Gly][N(2-ethylhexyl)Gly][N(2-decanoyloxyethyl)Gly][N(2-decanoyloxyethyl)Gly][N(2-ethylhexyl)Gly]-NH2) | 3.09E+08 | 5.62E+08 | 6.65% | 55.7 | – | 90.8 | 422 | – | 2.35E+09 | 9.70E+09 | 0.135 | 90.0 | – | 71.0 | % Encapsulation (mRNA; formulation recipe R1): 89.4%; % Encapsulation (mRNA; formulation recipe R5): 92.2%; % Encapsulation (mRNA; formulation recipe R7): 87.8%; % Encapsulation (mRNA; formulation recipe R9): 93.3%; Total Flux (luciferase expression) (firefly luciferase; formulation recipe R1): 5.73E+08 p/s; Total Flux (luciferase expression) (firefly luciferase; formulation recipe R5): 6.72E+08 p/s; Total Flux (luciferase expression) (firefly luciferase; formulation recipe R7): 1.81E+09 p/s; Total Flux (luciferase expression) (firefly luciferase; formulation recipe R9): 1.14E+09 p/s; Particle Size ([2]; formulation recipe R1): 59.8 nm; Particle Size ([2]; formulation recipe R5): 57.2 nm; Particle Size ([2]; formulation recipe R7): 69.1 nm; Particle Size ([2]; formulation recipe R9): 59.0 nm |
| CCCCCCCCCC(=O)OCCCN(CC(N)=O)C(=O)CN(CC(CC)CCCC)C(=O)CN(CCCOC(=O)CCCCCCCCC)C(=O)CN(CCCOC(=O)CCCCCCCCC)C(=O)CN(CCCOC(=O)CCCCCCCCC)C(=O)CN(CC(CC)CCCC)C(=O)CNC(CO)CO (stereo not drawn) [Compound 103] (H-[N(CH(CH2OH)2)Gly][N(2-ethylhexyl)Gly][Gly(N-(3-decanoyloxypropyl))][Gly(N-(3-decanoyloxypropyl))][Gly(N-(3-decanoyloxypropyl))][N(2-ethylhexyl)Gly][Gly(N-(3-decanoyloxypropyl))]-NH2) | 1.93E+08 | 7.28E+08 | bdl | 76.8 | – | – | 961 | – | – | 8.56E+09 | 0.111 | 81.5 | – | – | – |
| CCCCCCCCCCCC(=O)OCCCN(CC(=O)N(CC(=O)N(CC(=O)N(CCCOC(=O)CCCCCCCCCCC)CC(=O)N(CC(=O)N(CC(N)=O)CC(CC)CCCC)CC(CC)CCCC)CC(CC)CCCC)CC(CC)CCCC)C(=O)CNC(CO)CO (stereo not drawn) [Compound 51] (H-[N(CH(CH2OH)2)Gly][N(3-lauroyloxypropyl)Gly][N(2-ethylhexyl)Gly][N(2-ethylhexyl)Gly][N(3-lauroyloxypropyl)Gly][N(2-ethylhexyl)Gly][N(2-ethylhexyl)Gly]-NH2) | 1.84E+08 | 2.26E+08 | 16.40% | 80.3 | 80.3 | – | 591 | 4.42E+09 | – | 4.42E+09 | 0.128 | 61.4 | 61.4 | – | % Encapsulation (mRNA; formulation recipe O5): 91.9%; % Encapsulation (mRNA; formulation recipe O6): 91.8%; Total Flux (luciferase expression) (firefly luciferase; formulation recipe O5): 1.50E+09 p/s; Total Flux (luciferase expression) (firefly luciferase; formulation recipe O6): 1.27E+09 p/s; Particle Size ([2]; formulation recipe O5): 58.4 nm; Particle Size ([2]; formulation recipe O6): 56.7 nm |
